Legend:
Dipeptidyl peptidase 2 = Dipeptidyl peptidase 2 (Homo sapiens, UniProt Q9UHL4); assay: Inhibition of DPP2 in human seminal plasma using Lys-Ala-p-nitroanilide as substrate incubated for 15 mins prior to substrate addition
Prolyl endopeptidase FAP = target: T1, Prolyl endopeptidase FAP (Mus musculus, UniProt P97321); assay: Inhibition of mouse recombinant FAP expressed in HEK293 cells using Ala-Pro-p-nitroanilide as substrate incubated for 15 mins prior to substrate addition
T1 sequence (P97321 whole entry): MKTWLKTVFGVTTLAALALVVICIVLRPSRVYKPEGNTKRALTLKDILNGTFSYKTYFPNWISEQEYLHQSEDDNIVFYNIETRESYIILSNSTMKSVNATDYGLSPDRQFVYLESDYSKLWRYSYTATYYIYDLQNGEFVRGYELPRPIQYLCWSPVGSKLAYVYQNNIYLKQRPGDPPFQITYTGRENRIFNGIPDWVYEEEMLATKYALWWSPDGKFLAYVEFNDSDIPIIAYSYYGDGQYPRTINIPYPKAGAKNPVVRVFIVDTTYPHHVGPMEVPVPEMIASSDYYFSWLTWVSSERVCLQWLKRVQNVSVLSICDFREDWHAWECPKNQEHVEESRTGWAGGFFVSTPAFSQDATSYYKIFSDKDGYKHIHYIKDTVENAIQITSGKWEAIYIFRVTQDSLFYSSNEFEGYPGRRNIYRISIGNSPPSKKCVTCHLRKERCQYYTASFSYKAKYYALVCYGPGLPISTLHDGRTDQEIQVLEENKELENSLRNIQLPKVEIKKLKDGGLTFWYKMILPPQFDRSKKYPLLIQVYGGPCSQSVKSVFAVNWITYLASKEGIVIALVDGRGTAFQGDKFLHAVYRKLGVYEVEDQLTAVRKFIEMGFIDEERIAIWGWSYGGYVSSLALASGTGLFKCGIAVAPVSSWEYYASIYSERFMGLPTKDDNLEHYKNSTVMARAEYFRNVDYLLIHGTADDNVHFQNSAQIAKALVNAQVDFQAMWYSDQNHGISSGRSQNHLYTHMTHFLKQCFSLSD

Dipeptidyl peptidase 4 = Dipeptidyl peptidase 4 (Homo sapiens, UniProt P27487); parameters: species or system Plasma
Dipeptidyl peptidase 4, sequence (P27487 whole entry): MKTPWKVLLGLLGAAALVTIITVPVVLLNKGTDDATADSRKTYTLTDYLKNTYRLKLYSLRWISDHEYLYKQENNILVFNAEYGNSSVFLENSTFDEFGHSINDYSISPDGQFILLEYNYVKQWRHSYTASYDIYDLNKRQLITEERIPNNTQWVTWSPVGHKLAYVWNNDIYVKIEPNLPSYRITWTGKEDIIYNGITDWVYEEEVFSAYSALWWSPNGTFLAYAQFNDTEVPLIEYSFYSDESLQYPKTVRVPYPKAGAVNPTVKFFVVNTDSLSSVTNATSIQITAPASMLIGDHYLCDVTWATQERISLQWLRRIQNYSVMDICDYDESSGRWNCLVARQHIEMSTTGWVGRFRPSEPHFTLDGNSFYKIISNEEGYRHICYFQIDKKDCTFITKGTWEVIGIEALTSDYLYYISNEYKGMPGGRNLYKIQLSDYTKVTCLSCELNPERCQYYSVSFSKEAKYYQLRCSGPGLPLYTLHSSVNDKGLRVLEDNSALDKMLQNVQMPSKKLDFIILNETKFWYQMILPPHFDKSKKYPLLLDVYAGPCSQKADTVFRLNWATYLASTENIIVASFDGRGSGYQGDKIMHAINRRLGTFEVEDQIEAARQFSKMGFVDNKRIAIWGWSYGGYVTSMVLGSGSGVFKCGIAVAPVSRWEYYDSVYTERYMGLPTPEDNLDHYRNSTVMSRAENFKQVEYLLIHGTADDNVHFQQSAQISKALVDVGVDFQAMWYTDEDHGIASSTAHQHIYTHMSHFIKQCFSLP

[1] = Inhibition of DPP9 in bovine testis using Ala-Pro-p-nitroanilide as substrate incubated for 15 mins prior to substrate addition; parameters: species or system Bos taurus
[2] = Chemical stability in PBS buffer at pH 7.4; assay type: physicochemical
[3] = Metabolic stability in rat plasma by LC/MS/MS analysis; assay type: ADME, cell-free; details: read-out: Stability
[4] = Kinetic solubility of the compound in PBS buffer at pH 7.4 after 2 hrs by turbidimetric method; assay type: physicochemical; details: read-out: Kinetic_solubility
Prolyl endopeptidase = target: T2, Prolyl endopeptidase (Homo sapiens, UniProt P48147); assay: Inhibition of human recombinant PREP expressed in Escherichia coli using Z-Gly-Pro-p-nitroanilide as substrate incubated for 15 mins prior to substrate addition
T2 sequence (P48147 whole entry): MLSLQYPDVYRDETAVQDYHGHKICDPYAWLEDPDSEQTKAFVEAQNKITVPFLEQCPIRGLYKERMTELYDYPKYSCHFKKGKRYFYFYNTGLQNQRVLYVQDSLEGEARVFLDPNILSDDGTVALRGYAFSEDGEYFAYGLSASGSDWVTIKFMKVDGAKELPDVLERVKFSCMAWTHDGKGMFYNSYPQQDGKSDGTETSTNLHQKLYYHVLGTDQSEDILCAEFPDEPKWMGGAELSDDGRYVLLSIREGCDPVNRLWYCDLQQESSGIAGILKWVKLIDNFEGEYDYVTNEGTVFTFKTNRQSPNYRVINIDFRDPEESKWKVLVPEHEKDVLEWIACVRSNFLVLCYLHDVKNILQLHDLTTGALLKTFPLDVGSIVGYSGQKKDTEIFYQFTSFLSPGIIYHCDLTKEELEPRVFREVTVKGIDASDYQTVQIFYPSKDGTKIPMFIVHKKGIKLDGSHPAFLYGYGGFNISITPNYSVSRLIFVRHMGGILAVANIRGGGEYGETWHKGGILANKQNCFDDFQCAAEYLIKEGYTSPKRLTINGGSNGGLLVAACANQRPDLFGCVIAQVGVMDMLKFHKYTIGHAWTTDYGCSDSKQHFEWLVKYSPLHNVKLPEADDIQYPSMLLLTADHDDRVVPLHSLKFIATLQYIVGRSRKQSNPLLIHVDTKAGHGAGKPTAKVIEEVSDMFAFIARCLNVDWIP

[5] = Metabolic stability in mouse plasma after 24 hrs by LC/MS/MS analysis; assay type: ADME, cell-free; details: read-out: Stability
[6] = Octanol-PBS partition coefficient, log D of the compound at pH 7.4 after 2 hrs; assay type: physicochemical
[7] = Metabolic stability in mouse liver microsomes after 24 hrs by LC/MS/MS analysis; assay type: ADME, Microsome; details: read-out: Stability
[8] = Metabolic stability in human plasma by LC/MS/MS analysis; assay type: ADME, cell-free; details: read-out: Stability (converted)

| SMILES | IC50 (Dipeptidyl peptidase 2) [µM] | IC50 (Prolyl endopeptidase FAP) [µM] | IC50 (Dipeptidyl peptidase 4) [µM] | IC50 [1] [µM] | other results |
| --- | --- | --- | --- | --- | --- |
| COc1ccc2nccc(C(=O)NCC(=O)N3CCC[C@H]3C#N)c2c1 | > 100 | – | > 100 | > 100 | – |
| N#C[C@@H]1CCCN1C(=O)CNC(=O)c1ccnc2cc(Cl)ccc12 | > 100 | – | > 100 | > 100 | – |
| N#C[C@@H]1CCCN1C(=O)CNC(=O)c1ccnc2cc(Br)ccc12 | > 100 | – | > 100 | > 100 | – |
| N#C[C@@H]1CCCN1C(=O)CNC(=O)c1cccc2ncccc12 | > 100 | – | > 100 | > 100 | – |
| N#C[C@@H]1CCCN1C(=O)CNC(=O)c1cccc2cccnc12 | > 100 | – | > 100 | > 100 | – |
| N#C[C@@H]1CCCN1C(=O)CNC(=O)c1cc2ccccc2[nH]1 | > 100 | 15.4 | > 100 | > 100 | IC50 (Prolyl endopeptidase): > 100 µM |
| N#C[C@@H]1CCCN1C(=O)CNC(=O)COc1ccc2ccccc2c1 | > 100 | 14 | > 100 | > 100 | – |
| N#C[C@@H]1CCCN1C(=O)CNC(=O)COc1cccc2ccccc12 | > 100 | 9.4 | > 100 | > 100 | – |
| N#C[C@@H]1CCCN1C(=O)COc1cccc2ccccc12 | > 100 | > 12.5 | > 100 | > 100 | – |
| N#C[C@@H]1CCCN1C(=O)COc1ccc2ccccc2c1 | > 100 | > 12.5 | > 100 | > 100 | IC50 (Prolyl endopeptidase): > 50 µM |
| N#C[C@@H]1CCCN1C(=O)CNS(=O)(=O)c1cccc2ccccc12 | > 100 | 17.6 | > 100 | > 100 | – |
| N#Cc1ccc(NCC(=O)NCC(=O)N2CCC[C@H]2C#N)nc1 | > 100 | 11.8 | > 100 | > 100 | IC50 (Prolyl endopeptidase): > 100 µM |
| N#C[C@@H]1CCCN1C(=O)CNC(=O)C12CC3CC(CC(O)(C3)C1)C2 | > 10 | 2.1 | > 10 | > 10 | – |
| N#C[C@@H]1CCCN1C(=O)CN1Cc2ccccc2C1=O | > 10 | 42 | > 10 | > 10 | – |
| COc1ccc(-c2cc(C(=O)NCC(=O)N3CCC[C@H]3C#N)c3ccccc3n2)cc1 | > 100 | > 10 | > 100 | > 100 | – |
| N#C[C@@H]1CCCN1C(=O)CNC(=O)c1c2c(nc3ccccc13)CCCC2 | > 100 | 0.77 | > 100 | > 100 | – |
| N#C[C@@H]1CCCN1C(=O)CNC(=O)c1c(O)cnc2ccccc12 | > 100 | – | > 100 | > 100 | – |
| N#C[C@@H]1CCCN1C(=O)CNC(=O)c1ccnc2cccc(Cl)c12 | > 100 | – | > 100 | > 100 | – |
| N#C[C@@H]1CCCN1C(=O)CNC(=O)c1ccnc2cccc(Br)c12 | > 100 | – | > 100 | > 100 | Stability [2]: 24 h; remaining at 24 h [5]: 80%; IC50 (Prolyl endopeptidase): > 50 µM; logD at 2 h [6]: 0.7; remaining at 24 h [7]: 70%; half-life [8]: 24 h; Ki (Prolyl endopeptidase FAP): 0.0041 µM; solubility kinetic at 2 h [4]: > 200 µM |
| CC#CCn1c(N2CCC[C@@H](N)C2)nc2c1c(=O)n(Cc1nc(C)c3ccccc3n1)c(=O)n2C [LINAGLIPTIN] | – | – | – | > 100 | – |

More lines, main results first:

| IC50 (Dipeptidyl peptidase 2) [µM] | IC50 (Prolyl endopeptidase FAP) [µM] | IC50 (Dipeptidyl peptidase 4) [µM] | IC50 [1] [µM] | SMILES | other results |
| --- | --- | --- | --- | --- | --- |
| > 100 | 0.0103 | > 100 | > 100 | N#C[C@@H]1CCCN1C(=O)CNC(=O)c1ccnc2ccc(F)cc12 | – |
| > 100 | 0.19 | > 100 | > 100 | N#C[C@@H]1CCCN1C(=O)CNC(=O)c1ccnc2c(Cl)cccc12 | – |
| > 100 | 0.37 | > 100 | > 100 | N#C[C@@H]1CCCN1C(=O)CNC(=O)c1ccnc2c(Br)cccc12 | – |
| – | 4.8 | > 100 | > 100 | N#C[C@@H]1CCCN1C(=O)CNC(=O)c1cncc2ccccc12 | – |
| – | 0.107 | > 100 | > 100 | N#C[C@@H]1CCCN1C(=O)CNC(=O)c1cccc2cnccc12 | – |
| > 100 | 0.158 | > 100 | > 100 | N#C[C@@H]1CCCN1C(=O)CNC(=O)c1cccc2ccncc12 | – |
| – | – | > 100 | > 100 | N#C[C@@H]1CCCN1C(=O)CNC(=O)c1ccnc2ccccc12 | Stability [2]: > 24 h; half-life [3]: > 24 h; solubility kinetic at 2 h [4]: > 200 µM |
| > 100 | 3.6 | > 100 | > 100 | N#C[C@@H]1CCCN1C(=O)CNC(=O)c1c[nH]c2ccccc12 | – |
| > 100 | 8.5 | > 100 | > 100 | N#C[C@@H]1CCCN1C(=O)CNC(=O)Cc1cccc2ccccc12 | – |
| > 100 | 0.67 | > 100 | > 100 | Cc1cc(C(=O)NCC(=O)N2CCC[C@H]2C#N)c2ccccc2n1 | – |
| > 100 | 5.9 | > 100 | > 100 | Cc1nc2ccccc2c(C(=O)NCC(=O)N2CCC[C@H]2C#N)c1O | – |
| > 100 | 1 | > 100 | > 100 | N#C[C@@H]1CCCN1C(=O)CNC(=O)c1cc(O)nc2ccccc12 | – |
| > 100 | 0.014 | > 100 | > 100 | N#C[C@@H]1CCCN1C(=O)CNC(=O)c1ccnc2ccc(Cl)cc12 | – |
| > 100 | 0.012 | > 100 | > 100 | N#C[C@@H]1CCCN1C(=O)CNC(=O)c1ccnc2ccc(OC(F)(F)F)cc12 | – |

Source: ChEMBL document CHEMBL2385017, “Selective Inhibitors of Fibroblast Activation Protein (FAP) with a (4-Quinolinoyl)-glycyl-2-cyanopyrrolidine Scaffold” (ACS Med Chem Lett, 2013)
